Measurements reported in patent publication US20050267030A1, “Use of deltaPKC peptides for modulation of reactive oxygen species” (priority 2004, published 2005).
Ends that are not written are not given here.

Tests used:
[1] = tested on: rat vascular smooth muscle cells; assay: Production of reactive oxygen species (superoxide) in vitro, loss of tempoamine signal by electron spin resonance; type: cell-based; details: FIG. 2
Protocol: Example 1 details a study where inhibitors and activators of δPKC were administered to rat vascular smooth muscle cells in vitro. Cells were incubated in presence of (1) the agonist Tat-conjugated peptide ψδRACK (SEQ ID NO:5); (2) phorbol 12-myristate 13-acetate (PMA); or (3) the antagonist Tat-conjugated peptide δV1-1 (SEQ ID NO:3) plus PMA. A control cell sample was left untreated. Tempoamine ((2,2,6,6-tetramethyl-1-piperidi-nyloxy-4-amine)) was added to each culture and the loss of tempoamine signal was measured by electron spin resonance to measure superoxide production.
PMA, a non-isozyme specific activator of PKC, stimulated a 3-4 fold increase in ROS in the cells. […] Inhibition of this PKC isoform caused a decrease in PMA-stimulated ROS production.
Rat vascular smooth muscle cells were harvested from Zucker lean aortas by enzymatic digestion and cultured in Dulbecco's modified eagle's medium with 10% fetal bovine serum and penicillin/streptomycin under standard tissue culture conditions. The cells were incubated in the presence tempoamine ((2,2,6,6-tetramethyl-1-piperidi-nyloxy4-amine)) (100 μM) and in the presence of (1) the agonist Tat-conjugated peptide ψδRACK (10 μM); (2) phorbol 12-myristate 13-acetate (PMA, 500 ng/mL); or (3) the antagonist Tat-conjugated peptide δV1-1 (10 μM) plus PMA (500 ng/mL). A control cell sample was left untreated. The loss of tempoamine signal was measured by electron spin resonance to measure superoxide production.

[2] = tested on: Zucker obese rats (fa/fa); assay: ROS (superoxide) production in aorta tissue homogenates of Zucker rats, electron spin resonance; type: in vivo, rat; details: Zucker obese rats treated, versus Zucker lean control, FIG. 3A
Protocol: Tissue homogenates from the aortas of Zucker obese rats and of Zucker lean (Fa/fa) rats were prepared and analyzed for superoxide production using electron spin resonance with a tempomaine probe.

TGF-β1 = TGF-β1 gene expression in rat vascular smooth muscle cells, TaqMan real time PCR; type: cell-based
Protocol: (§1) In another study, described in Example 4, the gene transcriptional effects of insulin and the selective inhibition of PKC isoforms was examined using real-time polymerase chain reaction (TaqMan® PCR). In vitro cells were incubated with insulin and in the presence or absence of a δPKC inhibitor, δV1-1 peptide. The expression of TGF-β and core binding factor α-1 (Cbf α-1) were monitored using TaqMan® real time PCR. Rat vascular smooth muscle cells passages three through seven were prepared as describe in Example 1B. The cells were incubated with insulin (100 nm, SourceLife Technologies) or with the δPKC inhibitor peptide δV1-1, prepared as described in Example 1A. RNA isolation and purification were performed as described in Example 2 and TaqMan® real time PCR was used to analyze the relative quantity TGF-β1 and core binding factor α-1 (Cbf α-1). PCR primers and probes were obtained commercially from Applied Biosystems, Inc. and the PCR was performed on an Applied Biosystems ABI Prism 7700.

Cbfa-1 = Cbfa-1 gene expression in rat vascular smooth muscle cells, TaqMan real time PCR; type: cell-based; details: cells incubated with Tat-conjugated peptide versus untreated control, FIG. 5C
Protocol: as §1

δPKC = assay: Translocation of δPKC in cells incubated with insulin, Western blot of cytosol and membrane fractions; type: cell-based, rat; details: bovine insulin 100 nM, up to 24 hours, semi-quantitative from Western blot, FIG. 4B
Protocol: Example 3 describes a study conducted to examine to role of PKC isozymes, and in particular δPKC, in vascular fibrosis, which is accelerated during the insulin-resistant, pre-diabetic state in animals. In this study, rat vascular smooth muscle cells were incubated with bovine insulin. Translocation of PKC isozymes was assessed by Western blot analysis of the cystosolic and membrane (particulate) fractions of the cells. The subcellular localization of various PKC isozymes was assessed by […] by probing the blot with isozyme specific antibodies, such as anti-δPKC, anti-αPKC, and anti-ε PKC, etc. […]
Rat vascular smooth muscle cells passages three through seven were prepared as described in Example 1 B. The cells were incubated with bovine insulin (100 nM) for time periods of up to 24 hours. Activation of various PKC isozymes was analyzed by harvesting the cells and separating the protein into cytosolic and membrane (particulate) fractions and examining both fractions by Western blot using anti-δPKC, anti-αPKC, and anti-ε PKC for the presence of different PKC isoforms. The activity of the isoform was assessed as amount of PKC in the membrane fraction divided by the total amount of protein in both fractions (cytosol and membrane), normalized to control.

CCCCCCCCCCCCCC(=O)O[C@@H]1[C@@H](C)[C@@]2(O)[C@@H](C=C(CO)C[C@]3(O)C(=O)C(C)=C[C@@H]23)[C@@H]2C(C)(C)[C@]12OC(C)=O [PMA, phorbol 12-myristate 13-acetate, reference compound]
increase in ROS in the cells ([1]; PMA 500 ng/mL, tempoamine 100 μM): 3-4 fold

O=C1CSC(=O)N1 [TZD1]
ROS production in aorta homogenates [2]: brought the ROS production down to control levels

MRAAEDPM (not fully specified; also: Tat conjugated; listed as Rattus norvegicus) [ψδRACK, δPKC agonist peptide, amino acids 74-81 of δPKC]
production of ROS ([1]; Tat-conjugated peptide 10 μM, tempoamine 100 μM, versus untreated control): increased production of ROS

SFNSYELGSL (not fully specified; also: Tat conjugated; listed as Rattus norvegicus) [δV1-1, δPKC antagonist peptide, amino acids 8-17 of δPKC]
TGF-β1 expression (TGF-β1; cells incubated with Tat-conjugated peptide versus untreated control, FIG. 5B): inhibited
Cbfa-1 gene expression (Cbfa-1): inhibited
ROS production stimulated by PMA ([1]; Tat-conjugated peptide 10 μM co-incubated with PMA 500 ng/mL): effective to reverse or inhibit a significant part of the ROS production stimulated by PMA

insulin: bovine insulin incubated with rat vascular smooth muscle cells
normalized TGF-β expression (TGF-β1; cells incubated with insulin (100 nm) versus untreated control, FIG. 5A): did not appear to stimulate
relative δPKC activity (membrane fraction / total, normalized to control) (δPKC): about 1.7
